# ChEMBL document CHEMBL1201862, “PubChem BioAssay data set” (2004)
# Calls of active or inactive are those of the source.
# How the values were obtained:
# [1] = biological target: T1, Tyrosine-protein phosphatase non-receptor type 22 (Homo sapiens, UniProt Q9Y2R2); assay type: functional
# T1 sequence (Q9Y2R2 whole entry): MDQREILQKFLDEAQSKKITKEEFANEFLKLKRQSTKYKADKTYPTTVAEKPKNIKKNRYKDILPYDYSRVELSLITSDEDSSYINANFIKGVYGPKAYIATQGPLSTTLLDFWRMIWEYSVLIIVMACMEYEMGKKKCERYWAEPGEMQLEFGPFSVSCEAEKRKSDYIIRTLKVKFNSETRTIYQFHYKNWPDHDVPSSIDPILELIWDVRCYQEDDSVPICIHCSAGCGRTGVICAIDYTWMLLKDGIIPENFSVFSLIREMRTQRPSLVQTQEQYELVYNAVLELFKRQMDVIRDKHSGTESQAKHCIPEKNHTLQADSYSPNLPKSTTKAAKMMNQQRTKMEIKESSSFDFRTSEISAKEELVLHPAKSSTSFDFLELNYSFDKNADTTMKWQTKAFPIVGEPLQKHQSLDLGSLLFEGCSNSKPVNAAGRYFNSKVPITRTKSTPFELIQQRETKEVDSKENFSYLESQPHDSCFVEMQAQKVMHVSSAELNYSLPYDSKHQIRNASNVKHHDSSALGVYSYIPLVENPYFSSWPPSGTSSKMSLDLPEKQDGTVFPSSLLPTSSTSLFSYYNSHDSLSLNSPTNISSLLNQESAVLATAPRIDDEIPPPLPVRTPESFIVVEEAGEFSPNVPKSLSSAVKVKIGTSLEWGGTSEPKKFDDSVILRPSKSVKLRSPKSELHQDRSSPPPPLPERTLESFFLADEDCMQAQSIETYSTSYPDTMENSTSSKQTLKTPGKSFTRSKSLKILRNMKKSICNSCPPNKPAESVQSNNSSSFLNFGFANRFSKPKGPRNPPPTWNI
# [2] = biological target: T1, Tyrosine-protein phosphatase non-receptor type 22; assay type: functional; remark: listed apart in the source
# [3] = biological target: Tyrosine-protein phosphatase non-receptor type 7 (Homo sapiens, UniProt P35236); assay type: functional
# fMet-Leu-Phe receptor = biological target: T2, fMet-Leu-Phe receptor (Homo sapiens, UniProt P21462); assay: FPR ligands, dose response (AID 519); assay type: functional
# T2 sequence (P21462 whole entry): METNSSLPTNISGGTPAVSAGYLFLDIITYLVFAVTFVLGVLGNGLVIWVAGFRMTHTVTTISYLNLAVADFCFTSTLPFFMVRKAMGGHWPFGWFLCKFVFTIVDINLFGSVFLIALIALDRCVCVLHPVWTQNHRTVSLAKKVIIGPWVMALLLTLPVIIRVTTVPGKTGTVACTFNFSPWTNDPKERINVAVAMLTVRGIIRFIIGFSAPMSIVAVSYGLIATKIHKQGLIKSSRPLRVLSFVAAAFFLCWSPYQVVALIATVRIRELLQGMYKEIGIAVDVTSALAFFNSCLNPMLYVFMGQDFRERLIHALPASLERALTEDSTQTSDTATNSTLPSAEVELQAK
# [4] = Vero cell cytotoxicity, dose response, cytotoxicity control for Vif-APOBEC3G degradation inhibitor project, Vero cells (AID 1117358); assay type: functional; settings: Human immunodeficiency virus 1, Vero
# [5] = biological target: Peroxisome proliferator-activated receptor gamma/Nuclear receptor coactivator 1 (Homo sapiens, UniProt P37231); assay: (§1) TR-FRET dose response biochemical High Throughput Screening assay for agonists of the steroid receptor coactivator 1 (SRC-1) recruitment by the peroxisome proliferator-activated receptor gamma (PPAR gamma): non-selective agonists. [Related pubchem assays (depositor defined):AID1300, AID1808, AID504735, AID631]; assay type: protein assay
# Major prion protein = Major prion protein (Homo sapiens, UniProt P04156); assay type: functional, cell-based
# [6] = biological target: Peroxisome proliferator-activated receptor gamma/Nuclear receptor coactivator 3 (Homo sapiens, UniProt P37231); assay: as §1, with “3 (SRC-3)” for “1 (SRC-1)”, “assays: 1301 (Confirmation screen.), 1048 (Primary screen.)]” for “assays (depositor defined):AID1300, AID1808, AID504735, AID631]”; assay type: functional
# [7] = biological target: Peroxisome proliferator-activated receptor gamma/Nuclear receptor coactivator 2 (Homo sapiens, UniProt P37231); assay: TR-FRET dose response biochemical High Throughput Screening assay for agonists of the steroid receptor coactivator 2 (SRC-2) recruitment by the peroxisome proliferator-activated receptor gamma (PPAR gamma): non-selective agonists. [Related pubchem assays: 1297, 1032 ]; assay type: functional
# [8] = biological target: Mitogen-activated protein kinase 10 (Homo sapiens, UniProt P53779); assay: Dose response biochemical screening assay for inhibitors of c-Jun N-Terminal Kinase 3 (JNK3). [Related pubchem assays: 746 ]
# [9] = biological target: T3, Peroxisome proliferator-activated receptor gamma (Homo sapiens, UniProt P37231); assay: PPARg ligand-binding domain binders, dose response, PPARg partial agonist project, biochemical, fluorescence polarization, PolarScreen (AID 504453)
# T3 sequence (P37231 whole entry): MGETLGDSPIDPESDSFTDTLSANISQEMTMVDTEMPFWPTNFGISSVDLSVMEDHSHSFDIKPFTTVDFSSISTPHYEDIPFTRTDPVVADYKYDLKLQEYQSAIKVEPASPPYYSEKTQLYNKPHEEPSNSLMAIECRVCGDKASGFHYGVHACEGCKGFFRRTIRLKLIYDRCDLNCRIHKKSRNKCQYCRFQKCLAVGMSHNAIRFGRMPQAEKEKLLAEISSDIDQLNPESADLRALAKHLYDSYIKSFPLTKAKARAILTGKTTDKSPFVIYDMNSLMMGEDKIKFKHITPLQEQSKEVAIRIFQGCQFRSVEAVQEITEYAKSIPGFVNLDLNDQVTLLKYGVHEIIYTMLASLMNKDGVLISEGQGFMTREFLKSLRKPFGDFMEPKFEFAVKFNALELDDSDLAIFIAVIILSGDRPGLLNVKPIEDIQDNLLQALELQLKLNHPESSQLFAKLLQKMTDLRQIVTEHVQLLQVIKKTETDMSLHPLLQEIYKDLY
# [10] = biological target: G-protein coupled receptor 55 (Homo sapiens, UniProt Q9Y2T6); assay: GPR55 antagonists blocking LPI-driven arrestin recruitment, primary screen, imaging, U2OS, beta-arrestin-GFP, LPI agonist (AID 2013); assay type: functional;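 further: antagonist potency measured as reduced agonist-driven arrestin aggregation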
# [11] = Luminescence Cell-Based Dose Retest to Confirm Inhibitors of Cancer Stem Cells. [Related pubchem assays (depositor defined):AID2717, AID2721]; assay type: functional; settings: Homo sapiens
# [12] = biological target: T3, Peroxisome proliferator-activated receptor gamma; assay: PPARg partial agonists, dose response, cell-based, luminescence, assay provider (AID 504447); assay type: functional
# [13] = HIV-1 Env-mediated cell fusion inhibitors, dose response, CCR5-tropic Env (AID 2279); assay type: functional
# Vero = Vero cell cytotoxicity, cytotoxicity control for flavivirus capping enzyme inhibitors (AID 588742); assay type: functional; settings: Chlorocebus sabaeus
# [14] = biological target: T3, Peroxisome proliferator-activated receptor gamma; assay: PPARg ligand-binding domain binders, dose response, PPARg partial agonist project, biochemical, TR-FRET, LanthaScreen (AID 504446)
# [15] = biological target: Peroxisome proliferator-activated receptor alpha (Homo sapiens, UniProt Q07869); assay: Late stage assay provider counterscreen for partial agonists of the peroxisome proliferator-activated receptor gamma (PPARg): Luminescence-based cell-based dose response assay for partial agonists of the peroxisome proliferator-activated receptor alpha (PPARA). [Related pubchem assays (depositor defined):AID1051, AID1300, AID1319, AID1679, AID1808, AID504446, AID504447, AID504452, AID504453, AID631]; assay type: functional
# [16] = biological target: Sphingosine 1-phosphate receptor 1 (Homo sapiens, UniProt P21453); assay: Fluorescence-based counterscreen assay for S1P4 agonists: Cell-based dose response high throughput screening assay to identify agonists of the Sphingosine 1-Phosphate Receptor 1 (S1P1). [Related pubchem assays (depositor defined):AID1509, AID1523, AID1801, AID463107, AID463118, AID463119, AID463122, AID463123, AID463129, AID463225, AID504400, AID504460]; assay type: functional
# [17] = biological target: T4, Sphingosine 1-phosphate receptor 4 (Homo sapiens, UniProt O95977); assay: Fluorescence dose response cell-based high throughput screening assay for agonists of the Sphingosine 1-Phosphate Receptor 4 (S1P4). [Related pubchem assays: 1509 (Primary screen.), 1523 (Confirmation screen in triplicates.)]; assay type: functional
# T4 sequence (O95977 whole entry): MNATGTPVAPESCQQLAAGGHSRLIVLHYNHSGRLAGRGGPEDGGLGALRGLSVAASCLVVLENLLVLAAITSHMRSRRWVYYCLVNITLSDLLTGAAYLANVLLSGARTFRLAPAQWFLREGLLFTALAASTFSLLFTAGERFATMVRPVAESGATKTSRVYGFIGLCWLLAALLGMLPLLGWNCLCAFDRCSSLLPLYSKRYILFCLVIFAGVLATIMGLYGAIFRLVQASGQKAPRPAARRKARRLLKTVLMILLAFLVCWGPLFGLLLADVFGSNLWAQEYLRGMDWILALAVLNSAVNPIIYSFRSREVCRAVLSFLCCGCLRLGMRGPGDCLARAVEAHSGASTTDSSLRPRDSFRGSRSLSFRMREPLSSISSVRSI
# [18] = biological target: Kappa-type opioid receptor (Homo sapiens, UniProt P41145); assay: SAR analysis of small molecule agonists of the kappa opioid receptor via a luminescent beta-arrestin assay - Set 3. [Related pubchem assays (depositor defined):AID1777, AID1785, AID1786, AID1966, AID2133, AID2136, AID2284, AID2500]; assay type: functional
# 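Wherever AC50 is given: cells exposed to compound for roughly 70 hours or longer before luminescence read.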
compound,measurement,setting,value
O=C(O)CCCNc1cc(N2CCC3(CC2)OCCO3)c2noc3c2c1C(=O)c1ccccc1-3,IC50,[1],61.9 µM (active)
same,IC50,[2],68.9 µM (active)
same,IC50,[3],69.3 µM (active)
same,Ki,fMet-Leu-Phe receptor,34.1 µM (inactive)
same,CC50,[4],> 40 µM (active)
CC(Sc1ccc2ccccc2n1)C(=O)O (configuration not stated),EC50,[5],> 79.4 µM (inactive)
same,IC50,Major prion protein,1.56 µM (active)
same,EC50,[6],> 79.4 µM (not active)
same,EC50,[7],> 79.4 µM (not active)
same,IC50,[8],4.87 µM (active)
same,IC50,cells,> 138 µM (inactive)
COc1ccc(-c2nn(-c3ccccc3)cc2/C=C2/SC(=S)N(CCC(=O)O)C2=O)c(C)c1,IC50,[9],0.152 µM (active)
same,IC50,[10],0.665 µM (active)
same,AC50,[11],9.19 µM (active)
same,EC50,[12],0.283 µM (active)
same,IC50,[13],47.4 µM (active)
same,CC50,Vero,> 40 µM (active)
same,IC50,[14],0.194 µM (active)
same,EC50,[15],> 3 µM (inactive)
Clc1ccc(/C=C\c2[nH]ccc3c4ccccc4nc2-3)cc1,EC50,[16],2.18 µM (active)
same,EC50,[17],4.41 µM (active)
FC(F)(F)c1cc(CSc2nnc(-c3ccccn3)n2Cc2ccccc2Cl)ccc1Cl,EC50,[18],4.3 µM (active)
